Data: patent publication US20020177625A1, “Class of glaucoma drugs to enhance aqueous humor outflow and lower intra-ocular pressure” (The Regents of the University of California, a California …, priority 2001, published 2002)

Experiments:
TM cells = experiment: Intracellular [Cl] of TM cells; type: cell-based; settings: niflumic acid 100 μM
Na—K—Cl co-transporter = target: T1, Na—K—Cl co-transporter (Homo sapiens, UniProt P55011); experiment: Na—K—Cl co-transport measured as bumetamide-sensitive K influx (86Rb tracer) in human TM cell monolayers; type: cell-based; settings: human TM cells
T1 construct: endogenous in cells; host or cells: cultured human trabecular meshwork (TM) cells, normal or glaucomatous donors
T1 sequence (P55011 1-1212): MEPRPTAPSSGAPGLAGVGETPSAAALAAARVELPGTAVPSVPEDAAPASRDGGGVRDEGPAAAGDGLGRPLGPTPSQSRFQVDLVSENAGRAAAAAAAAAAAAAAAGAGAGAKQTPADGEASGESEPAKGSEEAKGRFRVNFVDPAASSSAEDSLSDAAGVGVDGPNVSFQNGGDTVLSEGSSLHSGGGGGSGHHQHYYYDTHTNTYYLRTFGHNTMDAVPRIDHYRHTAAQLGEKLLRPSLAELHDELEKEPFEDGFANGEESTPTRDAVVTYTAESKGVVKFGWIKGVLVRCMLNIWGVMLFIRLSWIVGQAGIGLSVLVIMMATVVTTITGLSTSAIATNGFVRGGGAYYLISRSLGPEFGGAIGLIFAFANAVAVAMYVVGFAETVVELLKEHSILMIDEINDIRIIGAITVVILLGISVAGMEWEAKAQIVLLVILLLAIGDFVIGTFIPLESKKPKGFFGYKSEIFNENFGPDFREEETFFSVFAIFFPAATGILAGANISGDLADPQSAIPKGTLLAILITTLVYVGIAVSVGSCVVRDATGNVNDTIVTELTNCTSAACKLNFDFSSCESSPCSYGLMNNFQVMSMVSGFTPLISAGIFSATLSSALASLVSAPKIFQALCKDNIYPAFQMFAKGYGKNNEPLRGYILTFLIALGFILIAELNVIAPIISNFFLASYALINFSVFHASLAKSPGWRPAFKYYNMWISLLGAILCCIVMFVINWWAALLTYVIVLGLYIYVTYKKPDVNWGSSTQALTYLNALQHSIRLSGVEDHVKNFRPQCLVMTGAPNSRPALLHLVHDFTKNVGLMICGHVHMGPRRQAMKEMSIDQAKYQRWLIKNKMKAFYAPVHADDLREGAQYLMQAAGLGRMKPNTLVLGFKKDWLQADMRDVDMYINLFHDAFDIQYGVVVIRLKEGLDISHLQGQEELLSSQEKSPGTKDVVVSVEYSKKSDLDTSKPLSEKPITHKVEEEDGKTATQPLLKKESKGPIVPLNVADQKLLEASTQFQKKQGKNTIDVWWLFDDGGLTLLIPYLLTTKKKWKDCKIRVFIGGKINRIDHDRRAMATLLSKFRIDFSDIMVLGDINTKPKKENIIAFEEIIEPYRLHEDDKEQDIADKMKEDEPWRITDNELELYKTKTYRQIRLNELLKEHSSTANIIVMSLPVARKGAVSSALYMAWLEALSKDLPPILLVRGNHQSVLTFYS
Method: Na—K—Cl co-transport was measured as ouabain-insensitive, bumetamide-sensitive potassium influx, using ^86Rb as a tracer for potassium. […] The assay medium also contained ^86Rb (1 μCi/ml) (Dupont New England Nuclear, Boston, Mass.). The assay was terminated by rinsing the wells with ice-cold isotonic MgCl2, then extracting the contents with 0.2% sodium dodecyl sulfate (SDS), and determining the amount of radioactive contents by liquid scintillation. Osmolarities of all preincubation and assay media were verified by osmometry (Model 3W2, Advanced Instruments, Norwood, Mass.).
The cells were pretreated with Hepes-buffered minimal essential medium (MEM) ±10 μM bumetamide ±1 mM ouabain for 5 min, then assayed for 5 min in the same media plus ^86Rb. […] Data are means ±SEM, n=12.
Na—K—Cl co-transport activity of glaucomatous human TM cells was assessed as ouabain-insensitive, bumetamide-sensitive K influx, using ^86Rb as a tracer for K, as described previously. TM cells were preincubated for 5 minutes in a Hepes-buffered MEM containing 0 or 10 μM bumetamide in the presence of 1 mM ouabain, followed by a 5 minute assay in media of identical composition except that they also contained ^86Rb. […] Data are mean values ±SEM in seven normal TM cultures (donor age range, 38-68 years, n=12 in each cell culture) and in seven glaucomatous cultures (donor age range 41-75 years, n=7 in each cell culture).
Human TM cells were equilibrated in Hepes-buffered MEM for 30 minutes and then pretreated for 5 minutes in media containing 1 mM ouabain, 10 or 0 μM bumetamide, and 0.3 μM to 1 mM niflumic acid (NA). Cells were then assayed for bumetamide-sensitive K influx for 5 minutes in media identical to the pretreatment media but also containing ^86Rb (1 μCi/ml). […] Dashed line indicates control level of Na—K—Cl co-transport. Data are means ±SEM of at least 4 determinations from 3 experiments.

K influx value versus 0 mM NA control (Na—K—Cl co-transporter; niflumic acid 0.1 μM): not significantly different
Na—K—Cl co-transporter activity (Na—K—Cl co-transporter; niflumic acid 0.3 μM to 100 μM): significantly stimulate
Compound: O=C(O)c1cccnc1Nc1cccc(C(F)(F)F)c1 [niflumic acid]
intracellular [Cl] of the TM cells (TM cells): significantly reduced
